Assay results from US10865207B2, “Compounds for imaging Tau protein aggregates” (AC IMMUNE S.A., priority 2016, dated 2020).

Key:
MAO A = biological target: T1, MAO A (Mus musculus, UniProt Q64133); assay: MAO A 18F-FEH competition assay in mouse brain homogenate; assay type: binding; settings: for low MAO A binding (grade): Table 2, IC50 in mouse brain homogenate
T1 construct: from tissue; host or cells: whole mouse brain homogenate
T1 sequence (Q64133 1-526): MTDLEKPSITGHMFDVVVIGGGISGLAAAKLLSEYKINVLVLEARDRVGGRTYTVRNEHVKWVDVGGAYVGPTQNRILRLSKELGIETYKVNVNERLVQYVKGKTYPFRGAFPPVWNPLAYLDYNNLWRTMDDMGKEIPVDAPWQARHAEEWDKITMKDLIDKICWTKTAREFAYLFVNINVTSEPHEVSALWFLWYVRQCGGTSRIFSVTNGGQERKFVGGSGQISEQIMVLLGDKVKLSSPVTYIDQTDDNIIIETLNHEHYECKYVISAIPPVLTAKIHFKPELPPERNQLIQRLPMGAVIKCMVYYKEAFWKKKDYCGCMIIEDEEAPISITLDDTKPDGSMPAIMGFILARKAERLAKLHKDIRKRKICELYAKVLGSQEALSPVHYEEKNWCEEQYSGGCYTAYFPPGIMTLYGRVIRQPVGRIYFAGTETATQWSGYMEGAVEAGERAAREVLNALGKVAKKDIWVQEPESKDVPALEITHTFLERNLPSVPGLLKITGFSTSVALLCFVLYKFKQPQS

[1] = PK studies in healthy mice (dynamic PET); assay type: in vivo, NMRI mice; parameters: Good brain uptake (grade) / Mouse PK Uptake (grade): key: −: poor; ∘: moderate; +: good; ++: very good; +++: excellent; settings: for Mouse PK Uptake (grade) / Mouse PK Washout (grade) / Mouse PK De-fluorination (grade): Table 2; for bone uptake in shoulder joint at 60 min (de-fluorination) / peak uptake in brain (tracer uptake in healthy mice after iv injection) / ratio of uptake peak/30 min (washout from healthy brain): healthy mice; for bone uptake in shoulder joint at 60 min (de-fluorination): after iv injection; for peak uptake in brain (tracer uptake in healthy mice after iv injection): PET; for ratio of uptake peak/30 min (washout from healthy brain): Table 1: ratio of uptake at 2 min and 30 min; as to Fast washout from healthy brain (grade): key: −: poor; ∘: moderate; +: good; ++: very good; +++: excellent; as to Good brain uptake (grade): key: −: poor; ∘: moderate; +: good; ++: very good; +++: excellent; as to Mouse PK Washout (grade): key: −: poor; ∘: moderate; +: good; ++: very good; +++: excellent
Experimental: NMRI mice (weight range 25-35 g) were injected intravenously with the ^18F-labeled compounds. Up to 150 μL of 1×PBS solution with 10%-15% EtOH or dilution medium ([…]) containing the ^18F-labeled compound (2-10 MBq) were injected. Anesthesia with isoflurane was induced before injection of the tracer and maintained during the image acquisition period. PET scans were performed using a SIEMENS INVEON small animal PET/CT scanner (Siemens, Knoxville, Tenn.). PET acquisition was started immediately before the radioactive dose was injected into the animal through the tail vein. Images were generated as dynamic scans for 60 minutes.
The peak uptake in the brain was set to 100% and washout curves were generated to evaluate the clearance of the activity from the normal brain (FIG. 2).

Tau = Tau (Homo sapiens, UniProt P10636); assay: Competition binding to Tau in human AD brain homogenate with 18F-labeled Tau binder; settings: for binding affinity for Tau (in words): IC50 determined in AD brain homogenate; for high Tau binding (grade): Table 2, fluorine-19 derivatives; as to high Tau binding (grade): key: −: poor; ∘: moderate; +: good; ++: very good; +++: excellent
Experimental: 20 μg of human Alzheimer disease brain homogenate was incubated with a dilution series of each test compound (1000 to 0.06 nM) in the presence of 800 Bq of ^18F-labeled Tau binder. The samples were shaken at 110 rpm for 45 min at 37° C. Samples were then filtered through GF/B 96 well filter plates and washed twice with 300 μL assay buffer (PBS containing 0.1% BSA and 2% DMSO). Thereafter, filter plates were sealed and a Fuji Film Imaging Plate (BAS-SR2025) was placed on top. The imaging plate was analyzed after overnight exposition using a Fuji Film BAS-5000. Non-specific signal was determined with samples containing ^18F-labeled Tau-reference binder in the presence of assay buffer without brain substrate and competitor. […] The unblocked ^18F-labeled Tau-binder signal was defined as total binding. IC50 values were calculated by Prism V6 (GraphPad) setting total binding to 100%.

Tau, sequence (P10636 623-708 limits assumed): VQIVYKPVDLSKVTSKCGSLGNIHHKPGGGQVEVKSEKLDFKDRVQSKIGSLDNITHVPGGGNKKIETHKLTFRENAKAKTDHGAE

Row | low MAO A binding (grade) (MAO A) | Mouse PK Uptake (grade) [1] | Mouse PK Washout (grade) [1] | bone uptake in shoulder joint at 60 min (de-fluorination) [1] | peak uptake in brain (tracer uptake in healthy mice after iv injection) [1] | ratio of uptake peak/30 min (washout from healthy brain) [1] | binding affinity for Tau (in words) (Tau) | high Tau binding (grade) (Tau) | Fast washout from healthy brain (grade) ([1]; Table 1) | Good brain uptake (grade) ([1]; Table 1) | Low or minor de-fluorination (grade) ([1]; Table 1) | De-fluorination in mice (in words) ([1]; mouse, in vivo) | selectivity over MAO A (in words) (MAO A) | Mouse PK De-fluorination (grade) [1] | Low retention in healthy brain (grade) ([1]; Table 1) | Structure (SMILES)
1 | +++ | +++ | ++ | (4.8% ID/g) | (8.2% ID/g) | (14.5) | poor | − |  |  |  |  |  |  |  | Fc1ccncc1-c1ccc2c(n1)[nH]c1ccncc12 [Comparative Example 6 (F-6)]
2 |  |  |  |  |  |  |  |  | + | ++ | − | De-fluorination in mice was found |  |  |  | [18F]c1ccc(-c2ccc3c(n2)[nH]c2ccncc23)cn1 [Compound ^18F-2]
3 | + | ++ | ++ | (6.2% ID/g) | (5.7% ID/g) | (10.9) |  | +++ |  |  |  |  | Inferior | − |  | Fc1ccc(-c2ccc3c(n2)[nH]c2ccncc23)cn1 [Compound F-2]
4 | +++ |  |  |  |  |  | inferior | ++ |  |  |  |  |  |  |  | Fc1ccnc(-c2ccc3c(n2)[nH]c2ccncc23)c1 [Comparative Example 9 (F-9)]
5 |  |  |  |  |  |  |  | +++ |  |  |  |  | Inferior |  |  | Fc1ccc(-c2ccc3c(n2)[nH]c2ccncc23)nc1 [Comparative Example 8 (F-8)]
6 |  |  |  |  |  |  |  |  |  | ++ |  |  |  |  | − | [18F]c1ccc(-c2ccc3c(c2)[nH]c2ccncc23)cn1 [Compound ^18F-1]
7 | + | +++ |  | (11.1% ID/g) | (8.5% ID/g) | (7.0) | inferior | ++ |  |  |  |  | Inferior | − |  | Fc1cccc(-c2ccc3c(n2)[nH]c2ccncc23)n1 [Comparative Example 7 (F-7)]
8 | +++ | ++ | + | (2.9% ID/g) | (5.3% ID/g) | (9.6) | inferior | ++ |  |  |  |  |  | + |  | Fc1cncc(-c2ccc3c(n2)[nH]c2ccncc23)c1 [Comparative Example 5 (F-5)]

Row | Structure (SMILES) | low MAO A binding (grade) (MAO A) | Mouse PK Uptake (grade) [1] | Mouse PK Washout (grade) [1] | bone uptake in shoulder joint at 60 min (de-fluorination) [1] | peak uptake in brain (tracer uptake in healthy mice after iv injection) [1] | ratio of uptake peak/30 min (washout from healthy brain) [1] | binding affinity for Tau (in words) (Tau) | high Tau binding (grade) (Tau) | Fast washout from healthy brain (grade) ([1]; Table 1) | Good brain uptake (grade) ([1]; Table 1) | Low or minor de-fluorination (grade) ([1]; Table 1) | De-fluorination in mice (in words) ([1]; mouse, in vivo) | selectivity over MAO A (in words) (MAO A) | Mouse PK De-fluorination (grade) [1] | Low retention in healthy brain (grade) ([1]; Table 1)
9 | Fc1cccnc1-c1ccc2c(n1)[nH]c1ccncc12 [Comparative Example 10 (F-10)] | +++ |  | − | (6.2% ID/g) | (2.1% ID/g) | (3.6) | poor | − |  |  |  |  |  | − | 
